Assay results reported in publication doi:10.1101/2022.01.25.477728v2 (biorxiv, 2022).

Molecular target: T1, TcBDF2 / TcBD2 (TcBDF2HA) (Trypanosoma cruzi, UniProt A0A2V2V5V1)
T1 sequence (A0A2V2V5V1 2-119): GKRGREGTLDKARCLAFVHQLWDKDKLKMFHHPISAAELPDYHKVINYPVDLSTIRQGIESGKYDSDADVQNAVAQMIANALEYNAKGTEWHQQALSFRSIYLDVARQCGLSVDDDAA
Experiment: intrinsic tryptophan fluorescence quenching
Type: binding

Kd [µM] | SMILES
> 150 | COc1cc(OC)c2c(=O)[nH]c(-c3cc(C)c(OCCO)c(C)c3)nc2c1 [RVX-208]
~14 | COc1cc2c(cc1-c1c(C)noc1C)ncc1[nH]c(=O)n([C@H](C)c3ccccn3)c12 [iBET-151]
~14 | CCOC(=O)Nc1cc(-c2ccc(C)c(NS(C)(=O)=O)c2)nn2c(C)nnc12 [Bromosporine]
